# Results taken from US7157430B2, “(Substituted)acyl dipeptidyl inhibitors of the ICE/CED-3 family of cysteine proteases” (Idun Pharmaceuticals, Inc., priority 1998, dated 2007).
# Like-named read-outs stand apart in the source and are kept apart here. Where a SMILES comes first, the peptide text is derived from it. The star is where a group is joined. Hydrocinnamoyl = O=C(CCc1ccccc1)*; Cbz = O=C(OCc1ccccc1)*; CH2F = FC*
# How the values were obtained:
# Assay type in all cases: biochemical
# [1] = target: T1, CPP32 (Homo sapiens, UniProt P42574); assay: Fluorescence enzyme assay, IC50 determination, CPP32
# T1 sequence (P42574 29-175 limits assumed): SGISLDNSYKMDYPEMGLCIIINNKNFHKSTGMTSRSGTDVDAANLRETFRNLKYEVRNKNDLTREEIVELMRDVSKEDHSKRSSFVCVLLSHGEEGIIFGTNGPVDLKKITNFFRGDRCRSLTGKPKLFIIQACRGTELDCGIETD
# T1 sequence (P42574 176-277 limits assumed): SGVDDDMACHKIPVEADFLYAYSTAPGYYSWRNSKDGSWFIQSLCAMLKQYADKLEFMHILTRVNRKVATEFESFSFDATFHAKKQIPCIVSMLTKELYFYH
# Protocol: (§1) Fluorescence enzyme assays detecting the activity of the compounds of Formula 1 utilizing the recombinant ICE and CPP32 enzymes are performed essentially according to Thornberry et al. (Nature, 356:768:774 (1992)) and Nicholson et al. (Nature, 376:37–43 (1995)) respectively, (herein incorporated by reference) in 96 well microtiter plates. The substrate is Acetyl-Tyr-Val-Ala-Asp-amino-4-methylcoumarin (AMC) for the ICE assay and Acetyl-Asp-Glu-Val-Asp-amino-4-methylcoumarin for the CPP32, Mch2, Mch3 and Mch5 assays. Enzyme reactions are run in ICE buffer (25 mM HEPES, 1 mM EDTA, 0.1% CHAPS, 10% sucrose, pH 7.5) containing 2 mM DTT at room temperature in duplicate.
# (§2) The enzyme and the compound of Formula I to be assayed are allowed to preincubate in the microtitre plate wells for 30 minutes at room temperature prior to the addition of substrate to initiate the reaction. Fluorescent AMC product formation is monitored for one hour at room temperature by measuring the fluorescence emission at 460 nm using an excitation wavelength of 360 nm. The fluorescence change in duplicate (control) wells are averaged and the mean values are plotted as a function of inhibitor concentration to determine the inhibitor concentration producing 50% inhibition (IC50). The results of this assay are set forth below in Table 1 and in Table 3 (for Table 3, see Examples 11 through 52).
# (§3) The reference compound for this assay was Cbz-ValAlaAsp-H and the values are denoted in Table 1 as “Reference”.
# [2] = target: T2, MCH-3 (Homo sapiens, UniProt P55210); assay: Fluorescence enzyme assay, IC50 determination, Mch3
# T2 sequence (P55210 24-198 limits assumed): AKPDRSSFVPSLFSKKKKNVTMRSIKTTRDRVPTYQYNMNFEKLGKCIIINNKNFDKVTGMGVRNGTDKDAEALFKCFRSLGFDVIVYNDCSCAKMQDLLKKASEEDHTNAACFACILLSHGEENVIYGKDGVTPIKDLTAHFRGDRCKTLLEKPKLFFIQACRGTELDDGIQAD
# T2 sequence (P55210 207-303 limits assumed): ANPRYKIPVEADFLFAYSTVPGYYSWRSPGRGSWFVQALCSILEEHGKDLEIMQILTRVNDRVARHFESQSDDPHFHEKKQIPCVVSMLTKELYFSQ
# Protocol: as §1, §2, §3
# [3] = target: T3, MCH-2 (Homo sapiens, UniProt P55212); assay: Fluorescence enzyme assay, IC50 determination, Mch2
# T3 sequence (P55212 24-179 limits assumed): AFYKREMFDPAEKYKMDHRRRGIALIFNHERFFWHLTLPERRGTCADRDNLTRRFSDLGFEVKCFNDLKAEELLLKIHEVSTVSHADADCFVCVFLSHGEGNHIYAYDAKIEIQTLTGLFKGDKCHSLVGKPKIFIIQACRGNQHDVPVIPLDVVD
# T3 sequence (P55212 194-293 limits assumed): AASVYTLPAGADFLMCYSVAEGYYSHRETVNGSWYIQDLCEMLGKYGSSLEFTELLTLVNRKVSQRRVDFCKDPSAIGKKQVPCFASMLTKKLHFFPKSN
# Protocol: as §1, §2, §3
# [4] = target: T4, MCH-5 (Homo sapiens, UniProt Q14790); assay: Fluorescence enzyme assay, IC50 determination, Mch5
# Protocol: as §1, §2, §3
# [5] = target: T5, mICE (Mus musculus, UniProt P29452); assay: Fluorescence enzyme assay, IC50 determination, ICE
# T5 sequence (P29452 123-296 limits assumed): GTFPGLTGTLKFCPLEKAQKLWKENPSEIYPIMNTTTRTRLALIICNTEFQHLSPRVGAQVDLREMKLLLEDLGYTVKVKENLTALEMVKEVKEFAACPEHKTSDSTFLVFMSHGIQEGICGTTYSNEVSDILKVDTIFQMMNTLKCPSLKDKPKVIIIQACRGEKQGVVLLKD
# T5 sequence (P29452 315-402 limits assumed): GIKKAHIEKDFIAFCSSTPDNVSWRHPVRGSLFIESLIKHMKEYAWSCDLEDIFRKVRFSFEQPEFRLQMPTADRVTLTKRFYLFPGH
# Protocol: as §1, §2, §3
# [6] = target: T5, mICE; assay: Dissociation constant Ki and irreversible rate constant k3 for irreversible inhibitors, ICE; details: continuous assay 60 min, reaction initiated by adding enzyme
# [7] = target: T3, MCH-2; assay: Dissociation constant Ki and irreversible rate constant k3 for irreversible inhibitors, Mch2; details: continuous assay 60 min, reaction initiated by adding enzyme
# [8] = target: T1, CPP32; assay: Dissociation constant Ki and irreversible rate constant k3 for irreversible inhibitors, CPP32; details: continuous assay 60 min, reaction initiated by adding enzyme
# [9] = target: T4, MCH-5; assay: Dissociation constant Ki and irreversible rate constant k3 for irreversible inhibitors, Mch5; details: continuous assay 60 min, reaction initiated by adding enzyme
# [10] = recombinant enzyme, Ac-DEVD-AMC substrate, 30 min preincubation, room temperature, read-out: CPP32 IC50
# [11] = Ac-DEVD-AMC substrate, 30 min preincubation, room temperature, read-out: MCH-3 IC50
# [12] = Ac-DEVD-AMC substrate, 30 min preincubation, room temperature, read-out: MCH-2 IC50
# [13] = Ac-DEVD-AMC substrate, 30 min preincubation, room temperature, read-out: MCH-5 IC50
# [14] = recombinant enzyme, Ac-YVAD-AMC substrate, 30 min preincubation, room temperature, read-out: mICE IC50
# [15] = Table 3, method of Preparation 3A, read-out: CPP32 I50
# [16] = Table 3, method of Preparation 3A, read-out: MCH3 I50
# [17] = Table 3, method of Preparation 3A, read-out: MCH2 I50
# [18] = Table 3, method of Preparation 3A, read-out: MCH5 I50
# T4 sequence (Q14790 217-374 limits assumed, species assumed): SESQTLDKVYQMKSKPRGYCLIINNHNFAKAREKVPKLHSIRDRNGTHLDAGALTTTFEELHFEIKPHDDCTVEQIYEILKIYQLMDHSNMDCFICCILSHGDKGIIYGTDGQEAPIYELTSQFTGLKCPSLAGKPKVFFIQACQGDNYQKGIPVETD
# T4 sequence (Q14790 385-479 limits assumed, species assumed): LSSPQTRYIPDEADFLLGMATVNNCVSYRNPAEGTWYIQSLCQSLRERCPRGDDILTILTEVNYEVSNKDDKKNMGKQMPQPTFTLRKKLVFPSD
SMILES,"IC50 [1, 10]","IC50 [2, 11]","IC50 [3, 12]","IC50 [4, 13]",Ki [6],mICE k3/Ki [6],Ki [7],MCH-2 k3/Ki [7],CPP32 k3/Ki [8],Ki [8],Ki [9],MCH-5 k3/Ki [9],further results
"CC(C)C[C@H](NC(=O)C(C)Nc1cccc2ccccc12)C(=O)N[C@H](C=O)CC(=O)O (mixture of isomers) [Example 9, (3S,2′RS)-3-[N-(2′-(1-Naphthylamino)Propionyl)Leucinyl]Amino-4-Oxobutanoic Acid]",512 nM,7240 nM,310 nM,17 nM,–,–,–,–,–,–,–,–,–
"CC(C)C[C@H](NC(=O)COc1cccc2ccccc12)C(=O)N[C@H](C=O)CC(=O)O [Example 1, (3S)-3-[N-((1-Naphthyloxy)Acetyl)Leucinyl]Amino-4-Oxobutanoic Acid]",141 nM,1560 nM,995 nM,680 nM,–,–,–,–,–,–,–,–,"IC50 [5, 14]: 535 nM"
"CC(C)[C@H](NC(=O)COc1cccc2ccccc12)C(=O)N[C@H](C=O)CC(=O)O [Example 2, (3S)-3-[N-((1-Naphthyloxy)Acetyl)Valinyl]Amino-4-Oxobutanoic Acid]",355 nM,2100 nM,> 10000 nM,1200 nM,–,–,–,–,–,–,–,–,"IC50 [5, 14]: 336 nM"
"CC(C)C[C@H](NC(=O)[C@H](CCC(=O)O)Oc1cccc2ccccc12)C(=O)N[C@H](C=O)CC(=O)O [Example 3, (3S,2′S)-3-[N-((2′-(1-Naphthyloxy)-4′-Carboxy)Butyryl)Leucinyl]Amino-4-Oxobutanoic Acid]",21 nM,587 nM,15 nM,12 nM,–,–,–,–,–,–,–,–,–
"CC(C)C[C@H](NC(=O)[C@@H](CCC(=O)O)Oc1cccc2ccccc12)C(=O)N[C@H](C=O)CC(=O)O [Example 4, (3S,2′R)-3-[N-((2′-(1-Naphthyloxy)-4′-Carboxy)Butyryl)Leucinyl]Amino-4-Oxobutanoic Acid]",3.8 nM,130 nM,3.5 nM,31 nM,–,–,–,–,–,–,–,–,–
"CC(C)[C@H](NC(=O)COc1ccc2ccccc2c1C(=O)O)C(=O)N[C@H](C=O)CC(=O)O [Example 5, (3S)-3-[N-((1′-Carboxy-2′-Naphthyloxy)Acetyl)Valinyl]Amino-4-Oxobutanoic Acid]",401 nM,10900 nM,3610 nM,733 nM,–,–,–,–,–,–,–,–,"IC50 [5, 14]: 2960 nM"
"CC(C)[C@H](NC(=O)COc1c(C(=O)O)ccc2ccccc12)C(=O)N[C@H](C=O)CC(=O)O [Example 6, (3S)-3-[N-((2′-Carboxy-1′-Naphthyloxy)Acetyl)Valinyl]Amino-4-Oxobutanoic Acid]",54 nM,1650 nM,1430 nM,48 nM,–,–,–,–,–,–,–,–,"IC50 [5, 14]: 385 nM"
"CC(C)[C@H](NC(=O)COc1cc2ccccc2cc1C(=O)O)C(=O)N[C@H](C=O)CC(=O)O [Example 7, (3S)-3-[N-((3′-Carboxy-2′-Naphthyloxy)Acetyl)Valinyl]Amino-4-Oxobutanoic Acid]",731 nM,17000 nM,1900 nM,200 nM,–,–,–,–,–,–,–,–,"IC50 [5, 14]: 1890 nM"
CC(C)C[C@H](NC(=O)C(C)Oc1cccc2ccccc12)C(=O)N[C@H](C=O)CC(=O)O (some centres unmarked) [Example 14],–,–,–,–,–,–,–,–,–,–,–,–,"IC50 [1, 15]: 376 nM; IC50 [2, 16]: 1320 nM; IC50 [3, 17]: 1280 nM; IC50 [4, 18]: 2430 nM"
CC(C)C[C@H](NC(=O)C(C)Oc1cccc2cc(Br)ccc12)C(=O)N[C@H](C=O)CC(=O)O (some centres unmarked) [Example 15],–,–,–,–,–,–,–,–,–,–,–,–,"IC50 [1, 15]: 4810 nM; IC50 [2, 16]: 32400 nM; IC50 [3, 17]: 13800 nM; IC50 [4, 18]: 29100 nM"
CC(C)C[C@H](NC(=O)CCOc1cccc2ccccc12)C(=O)N[C@H](C=O)CC(=O)O [Example 22],–,–,–,–,–,–,–,–,–,–,–,–,"IC50 [1, 15]: 59 nM; IC50 [2, 16]: 1370 nM; IC50 [3, 17]: 305 nM; IC50 [4, 18]: 9810 nM"
CC(C)C[C@H](NC(=O)CCc1ccccc1)C(=O)N[C@H](C=O)CC(=O)O [Example 35] (Hydrocinnamoyl-Leu-Asp-aldehyde),–,–,–,–,–,–,–,–,–,–,–,–,"IC50 [1, 15]: 9740 nM; IC50 [2, 16]: > 10000 nM; IC50 ([5]; Table 3, method of Preparation 3A, read-out: mICE I50): > 10000 nM; IC50 [4, 18]: > 10000 nM"
"CC(C)C[C@H](NC(=O)COc1c(C(=O)O)ccc2ccccc12)C(=O)N[C@@H](CC(=O)O)C(=O)COC(=O)c1c(Cl)cccc1Cl [Example 165, (3S)-3-[N-((2′-Carboxy-1′-Naphthyloxy)Acetyl)Leucinyl]-Amino-5-(2′,6′-Dichlorobenzoyloxy)-4-Oxopentanoic Acid]",–,–,–,–,396 nM,"25,500 M^−1s^−1",8 nM,"116,000 M^−1s^−1","335,000 M^−1s^−1",20 nM,89 nM,"13,100 M^−1s^−1",–
CC(C)C[C@H](NC(=O)COc1c(C(=O)O)ccc2ccccc12)C(=O)N[C@@H](CC(=O)O)C(=O)COP(=O)(c1ccccc1)c1ccccc1 [Example 166],–,–,–,–,42 nM,"149,000 M^−1s^−1",11 nM,"146,000 M^−1s^−1","317,000 M^−1s^−1",28 nM,28 nM,"80,000 M^−1s^−1",–
CC(C)C[C@H](NC(=O)COc1c(C(=O)O)ccc2ccccc12)C(=O)N[C@@H](CC(=O)O)C(=O)COc1c(F)c(F)cc(F)c1F [Example 167],–,–,–,–,501 nM,"21,300 M^−1s^−1",42 nM,"52,500 M^−1s^−1","56,200 M^−1s^−1",89 nM,126 nM,"13,600 M^−1s^−1",–
C[C@H](NC(=O)COc1ccc2ccccc2c1)C(=O)NC(CC(=O)O)C(=O)COc1c(F)c(F)cc(F)c1F (some centres unmarked) [Example 176],–,–,–,–,480 nM,"11,100 M^−1s^−1",1260 nM,"1,330 M^−1s^−1","4,330 M^−1s^−1",3080 nM,1160 nM,684 M⁻¹ s⁻¹,–
C[C@H](NC(=O)COc1ccccc1-c1ccccc1)C(=O)NC(CC(=O)O)C(=O)COc1c(F)c(F)cc(F)c1F (some centres unmarked) [Example 177],–,–,–,–,225 nM,"45,600 M^−1s^−1",47 nM,"21,100 M^−1s^−1","89,700 M^−1s^−1",86 nM,439 nM,"4,370 M^−1s^−1",–
"CC(NC(=O)C(NC(=O)OCc1ccccc1)C(C)C)C(=O)NC(CC(=O)O)C(=O)CF (stereo not drawn) [refer., Cbz-ValAlaAsp-CH2F, reference compound] (Cbz-Val-Ala-Asp-CH2F; configuration not given here)",–,–,–,–,15 nM,"214,000 M^−1s^−1",594 nM,"2,950 M^−1s^−1","12,200 M^−1s^−1",820 nM,18 nM,"83,300 M^−1s^−1",–
